According to patent US7977322B2 (Vertex Pharmaceuticals Incorporated, priority 2004, dated 2011):

Target: T1, ΔF508-CFTR (Homo sapiens, UniProt P13569, DEL508-508)
T1 construct: expressed in transfected cells
Experiment: Membrane potential optical (FRET/VIPR) assay, identification of correction compounds
Type: cell-based
Settings: Table 3, assay not given; for Emax: read-out: % Activity / % Efficacy (relative efficacy)
Description: I) Membrane Potential Optical Methods for Assaying ΔF508-CFTR Modulation Properties of Compounds
These voltage sensitive assays are based on the change in fluorescence resonant energy transfer (FRET) between the membrane-soluble, voltage-sensitive dye, DiSBAC2(3), and a fluorescent phospholipid, CC2-DMPE, which is attached to the outer leaflet of the plasma membrane and acts as a FRET donor. Changes in membrane potential (Vm) cause the negatively charged DiSBAC2(3) to redistribute across the plasma membrane and the amount of energy transfer from CC2-DMPE changes accordingly. The changes in fluorescence emission were monitored using VIPR™ II, which is an integrated liquid handler and fluorescent detector designed to conduct cell-based screens in 96- or 384-well microtiter plates.
Identification of Correction Compounds
To identify small molecules that correct the trafficking defect associated with ΔF508-CFTR; a single-addition HTS assay format was developed. The cells were incubated in serum-free medium for 16 hrs at 37° C. in the presence or absence (negative control) of test compound. As a positive control, cells plated in 384-well plates were incubated for 16 hrs at 27° C. to “temperature-correct” ΔF508-CFTR. The cells were subsequently rinsed 3× with Krebs Ringers solution and loaded with the voltage-sensitive dyes. To activate ΔF508-CFTR, 10 μM forskolin and the CFTR potentiator, genistein (20 μM), were added along with Cl^− free medium to each well. The addition of Cl^− free medium promoted Cl^− efflux in response to ΔF508-CFTR activation and the resulting membrane depolarization was optically monitored using the FRET-based voltage-sensor dyes.
• Bath Solution #1: (in mM) NaCl 160, KCl 4.5, CaCl2 2, MgCl2 1, HEPES 10, pH 7.4 with NaOH. • Chloride-free bath solution: Chloride salts in Bath Solution #1 are substituted with gluconate salts. • CC2-DMPE: Prepared as a 10 mM stock solution in DMSO and stored at −20° C. • DiSBAC2(3): Prepared as a 10 mM stock in DMSO and stored at −20° C.
NIH3T3 mouse fibroblasts stably expressing ΔF508-CFTR are used for optical measurements of membrane potential. The cells are maintained at 37° C. in 5% CO2 and 90% humidity in Dulbecco's modified Eagle's medium supplemented with 2 mM glutamine, 10% fetal bovine serum, 1×NEAA, β-ME, 1×pen/strep, and 25 mM HEPES in 175 cm^2 culture flasks. For all optical assays, the cells were seeded at 30,000/well in 384-well matrigel-coated plates and cultured for 2 hrs at 37° C. before culturing at 27° C. for 24 hrs. for the potentiator assay.

T1 sequence (P13569 with tags, fused parts or gaps DEL508-508): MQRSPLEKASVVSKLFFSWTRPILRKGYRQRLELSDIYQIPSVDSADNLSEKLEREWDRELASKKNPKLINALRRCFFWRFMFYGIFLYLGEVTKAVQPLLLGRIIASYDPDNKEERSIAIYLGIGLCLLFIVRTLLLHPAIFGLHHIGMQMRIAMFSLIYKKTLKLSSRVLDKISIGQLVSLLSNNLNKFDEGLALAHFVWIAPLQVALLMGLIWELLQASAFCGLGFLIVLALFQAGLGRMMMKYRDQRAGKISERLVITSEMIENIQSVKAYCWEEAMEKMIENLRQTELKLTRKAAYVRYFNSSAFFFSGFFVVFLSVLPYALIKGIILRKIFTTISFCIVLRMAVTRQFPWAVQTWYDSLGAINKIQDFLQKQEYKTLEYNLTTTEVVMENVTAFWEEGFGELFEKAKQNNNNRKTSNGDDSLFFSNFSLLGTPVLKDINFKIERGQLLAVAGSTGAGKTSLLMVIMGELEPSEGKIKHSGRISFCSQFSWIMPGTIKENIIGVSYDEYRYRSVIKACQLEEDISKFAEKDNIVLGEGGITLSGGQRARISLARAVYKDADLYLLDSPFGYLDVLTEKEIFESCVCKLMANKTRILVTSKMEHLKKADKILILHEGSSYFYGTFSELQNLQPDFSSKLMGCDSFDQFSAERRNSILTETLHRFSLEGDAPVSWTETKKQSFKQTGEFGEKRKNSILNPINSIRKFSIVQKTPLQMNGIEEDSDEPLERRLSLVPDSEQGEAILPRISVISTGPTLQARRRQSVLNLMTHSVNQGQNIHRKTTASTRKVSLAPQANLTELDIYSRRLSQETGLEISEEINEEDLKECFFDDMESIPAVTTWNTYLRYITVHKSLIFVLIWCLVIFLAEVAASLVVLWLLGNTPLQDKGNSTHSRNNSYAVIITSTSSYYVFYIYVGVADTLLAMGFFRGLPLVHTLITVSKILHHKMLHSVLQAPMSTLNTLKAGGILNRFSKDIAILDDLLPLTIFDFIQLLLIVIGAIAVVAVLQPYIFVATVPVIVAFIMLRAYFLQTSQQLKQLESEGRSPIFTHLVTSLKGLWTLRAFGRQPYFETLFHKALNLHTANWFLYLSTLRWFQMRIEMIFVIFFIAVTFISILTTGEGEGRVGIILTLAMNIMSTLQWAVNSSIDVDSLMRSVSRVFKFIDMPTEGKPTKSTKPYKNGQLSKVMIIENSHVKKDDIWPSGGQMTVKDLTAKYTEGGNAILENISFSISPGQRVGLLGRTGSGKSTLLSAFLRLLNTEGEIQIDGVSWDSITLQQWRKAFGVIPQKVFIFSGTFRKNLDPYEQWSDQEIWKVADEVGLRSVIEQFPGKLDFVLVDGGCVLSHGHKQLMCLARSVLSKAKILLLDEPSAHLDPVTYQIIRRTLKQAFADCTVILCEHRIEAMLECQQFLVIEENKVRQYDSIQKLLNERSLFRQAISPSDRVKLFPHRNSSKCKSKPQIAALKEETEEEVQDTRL

COc1cccc(F)c1Cc1cnc(NC(=O)C2(c3ccc4c(c3)OCO4)CC2)s1 [Example 196]
% Activity / % Efficacy (relative efficacy): +++ (“+++” means>100%) | EC50: < 10 µM

COc1ccccc1CCc1cnc(NC(=O)C2(c3ccc4c(c3)OCO4)CC2)s1 [Example 197]
% Activity / % Efficacy (relative efficacy): +++ (“+++” means>100%) | EC50: < 10 µM

COc1ccccc1Cc1cnc(NC(=O)C2(c3ccc(F)c(F)c3)CC2)s1 [Example 198]
% Activity / % Efficacy (relative efficacy): +++ (“+++” means>100%) | EC50: < 10 µM

O=C(Nc1ncc(Cc2ccccc2Cl)s1)C1(c2ccc(F)c(F)c2)CC1 [Example 199]
% Activity / % Efficacy (relative efficacy): +++ (“+++” means>100%) | EC50: < 10 µM

COc1ccc(CC2(C(=O)Nc3ncc(Cc4ccccc4OC)s3)CC2)cc1 [Example 200]
% Activity / % Efficacy (relative efficacy): +++ (“+++” means>100%) | EC50: < 10 µM

COc1ccc(CC2(C(=O)Nc3ncc(Cc4ccccc4Cl)s3)CC2)cc1 [Example 201]
% Activity / % Efficacy (relative efficacy): ++ (“++” means between 25% to 100%) | EC50: < 10 µM

CCOC(=O)c1nc(NC(=O)C2(c3ccc4c(c3)OCO4)CC2)sc1Cc1ccccc1OC [Example 202]
% Activity / % Efficacy (relative efficacy): +++ (“+++” means>100%) | EC50: < 10 µM

O=C(Nc1ncc(C(c2ccccc2Cl)N2CCOCC2)s1)C1(c2ccc3c(c2)OCO3)CC1 (stereo not drawn) [Example 203]
% Activity / % Efficacy (relative efficacy): ++ (“++” means between 25% to 100%) | EC50: < 10 µM

O=C(Nc1ncc([C@@H](c2ccccc2Cl)N2CCCCC2)s1)C1(c2ccc3c(c2)OCO3)CC1 [Example 211]
EC50: < 10 µM | Emax: > 100%

C=CCN(C)C(c1cnc(NC(=O)C2(c3ccc4c(c3)OCO4)CC2)s1)c1ccccc1Cl (stereo not drawn) [Example 218]
% Activity / % Efficacy (relative efficacy): +++ (“+++” means>100%) | EC50: < 10 µM

O=C(Nc1ncc(C(c2ccccc2Cl)N2CCC[C@@H]2CO)s1)C1(c2ccc3c(c2)OCO3)CC1 (stereo partly drawn) [Example 229]
EC50: < 10 µM | Emax: > 100%

COCCN1CCN(C(c2cnc(NC(=O)C3(c4ccc5c(c4)OCO5)CC3)s2)c2ccccc2Cl)CC1 (stereo not drawn) [Example 238]
% Activity / % Efficacy (relative efficacy): +++ (“+++” means>100%) | EC50: < 10 µM

CCOC(c1cnc(NC(=O)C2(c3ccc4c(c3)OCO4)CC2)s1)c1ccccc1Cl (stereo not drawn) [Example 240]
% Activity / % Efficacy (relative efficacy): +++ (“+++” means>100%) | EC50: < 10 µM

O=C(Nc1ncc(C(c2ccccc2Cl)n2ccnc2)s1)C1(c2ccc3c(c2)OCO3)CC1 (stereo not drawn) [Example 241]
% Activity / % Efficacy (relative efficacy): ++ (“++” means between 25% to 100%) | EC50: < 10 µM

COc1ccc(C2(C(=O)Nc3ncc(Cc4cnccc4OC)s3)CC2)cc1 [Example 242]
% Activity / % Efficacy (relative efficacy): +++ (“+++” means>100%) | EC50: < 10 µM

COc1ccc(C2(C(=O)Nc3ncc(C4(c5ccccc5OC)CC4)s3)CC2)cc1 [Example 243]
% Activity / % Efficacy (relative efficacy): +++ (“+++” means>100%) | EC50: < 10 µM

COc1ccncc1Cc1cnc(NC(=O)C2(c3ccc4c(c3)OCO4)CC2)s1 [Example 244]
% Activity / % Efficacy (relative efficacy): +++ (“+++” means>100%) | EC50: < 10 µM

COc1ccccc1C1(c2cnc(NC(=O)C3(c4ccc5c(c4)OCO5)CC3)s2)CC1 [Example 245]
% Activity / % Efficacy (relative efficacy): +++ (“+++” means>100%) | EC50: < 10 µM

CC(C)[C@@H](CO)NC(c1cnc(NC(=O)C2(c3ccc4c(c3)OCO4)CC2)s1)c1ccccc1Cl (stereo partly drawn) [Example 246]
EC50: < 10 µM | Emax: > 100%

C=CCOC(c1cnc(NC(=O)C2(c3ccc4c(c3)OCO4)CC2)s1)c1ccccc1Cl (stereo not drawn) [Example 251]
EC50: < 10 µM | Emax: > 100%

O=C(Nc1ncc(C(OCCN2CCCC2)c2ccccc2Cl)s1)C1(c2ccc3c(c2)OCO3)CC1 (stereo not drawn) [Example 255]
EC50: < 10 µM

O=C1CC[C@@H](CO[C@H](c2cnc(NC(=O)C3(c4ccc5c(c4)OCO5)CC3)s2)c2ccccc2Cl)N1 [Example 256]
EC50: < 10 µM | Emax: > 100%

O=C(Nc1ncc(C(OCC2CCOC2)c2ccccc2Cl)s1)C1(c2ccc3c(c2)OCO3)CC1 (stereo not drawn) [Example 258]
EC50: < 10 µM | Emax: > 100%
